Laboratory results as given in patent US12492210B2, “Tricyclic compounds and their use” (HUTCHISON MEDIPHARMA LIMITED, priority 2019, dated 2025).

Legend:
[1] = system: p-RSK (Thr359) in colo205 cells; test: p-RSK (Thr359) Acumen Assay in Colo205; assay type: cell-based; conditions: Homo sapiens, COLO 205, 1 hour compound incubation, read-out: Example 19 IC50
Method in brief: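 Colo205 cells (4000/well, seeded overnight in 10% FBS) were exposed 1 hour at 37° C to compound added from a 3–0.001 μM dilution series in 5% DMSO. Cells were then fixed, permeabilised and immunostained for p-RSK Thr359, with PI counterstain. Acumen cytometry gave the percentage of positive cells, normalised to untreated wells and 3 uM GDC0994 wells, for the IC50 fit.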

MAPK1(ERK2) enzyme = biological target: T1, MAPK1(ERK2) enzyme (Homo sapiens, UniProt P28482); test: Z-Lyte Kinase Assay of ERK2; assay type: biochemical; conditions: read-out: Example 18 IC50
T1 construct: purchased Invitrogen PV3313
T1 sequence (P28482 whole entry): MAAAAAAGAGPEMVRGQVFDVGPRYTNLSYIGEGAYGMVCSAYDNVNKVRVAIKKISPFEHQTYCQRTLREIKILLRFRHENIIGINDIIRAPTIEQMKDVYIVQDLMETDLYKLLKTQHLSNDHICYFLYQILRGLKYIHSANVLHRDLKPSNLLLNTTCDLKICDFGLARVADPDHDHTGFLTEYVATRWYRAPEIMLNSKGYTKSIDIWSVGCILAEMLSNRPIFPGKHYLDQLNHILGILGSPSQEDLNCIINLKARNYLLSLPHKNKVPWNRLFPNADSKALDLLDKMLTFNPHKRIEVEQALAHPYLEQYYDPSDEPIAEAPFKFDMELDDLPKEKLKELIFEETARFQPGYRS
Method in brief: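 FRET-based Z-LYTE assay using ERK2 kinase with Ser/Thr3 peptide; compound tested at 0.00046–1 μM final in 2% DMSO. Kinase reaction ran 1 h at 25-30° C, followed by 1 h development. The coumarin/fluorescein emission ratio (445/520 nm) gave % phosphorylation, and IC50 was fitted from inhibition relative to uninhibited control.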

Row | Compound | IC50 [1] [nM] | IC50 (MAPK1(ERK2) enzyme) [nM]
1 | Cn1nccc1Nc1cc(-c2cc3n(c2)CC(F)(F)Cn2c-3nnc2C2(C(F)F)COC2)c(Cl)cn1 [Compound 32] | ≤ 100 | ≤ 5
2 | Cc1cnc(Nc2ccnn2C)nc1-c1cc2n(c1)C[C@H](C)n1c-2nnc1C(F)(F)n1cc(Cl)cn1 [Compound 102] | ≤ 100 | ≤ 5
3 | C[C@H]1Cn2cc(-c3nc(Nc4ccnn4C)ncc3F)cc2-c2nnc(C(F)(F)c3ccccc3F)n21 [Compound 97] | ≤ 100 | 5 to 10
4 | Fc1ccccc1OCc1nnc2n1CCCn1cc(-c3cc(NC4CC4)ncc3C(F)(F)F)cc1-2 [Compound 252] | > 100 | > 10
5 | Cn1nccc1Nc1cc(-c2cc3n(c2)C[C@H](CF)n2c-3nnc2C(F)(F)C(F)(F)F)c(Cl)cn1 [Compound 114] | > 100 | ≤ 5
6 | Cc1cnc(Nc2ccnn2C)nc1-c1cn2c(n1)-c1nnc(C(F)(F)c3ccccc3Cl)n1[C@@H](C)C2 [Compound 222] | ≤ 100 | ≤ 5
7 | Cc1cnc(Nc2ccnn2C)nc1-c1cc2n(c1)CC(F)(F)Cn1c-2nnc1C1(C(F)(F)F)CCC1 [Compound 264] | > 100 | ≤ 5
8 | Cc1cnc(Nc2ncnn2C)cc1-c1cc2n(c1)C[C@H](CF)n1c-2nnc1C(F)(F)c1ccccc1Cl [Compound 173] | > 100 | 5 to 10
9 | Cn1nccc1Nc1cc(-c2cc3n(c2)CC(CO)Cn2c-3nnc2C2(C(F)(F)F)CCC2)c(Cl)cn1 (stereo not drawn) [Compound 299, (10-(5-chloro-2-((1-methyl-1H-pyrazol-5-yl)amino)pyridin-4-yl)-3-(1-(trifluoromethyl)cyclobutyl)-6,7-dihydro-5H-pyrrolo[1,2-a][1,2,4]triazolo[3,4-c][1,4]diazepin-6-yl)methanol] | ≤ 100 | ≤ 5
10 | Cc1cnc(Nc2ccnn2C)cc1-c1cc2n(c1)CC1(CCC1)Cn1c-2nnc1C1(C(F)(F)F)CCC1 [Compound 129] | ≤ 100 | ≤ 5
11 | Cn1nccc1Nc1cc(-c2cc3n(c2)C[C@H](CF)n2c-3nnc2C(F)(F)c2ccccc2F)c(Cl)cn1 [Compound 190] | ≤ 100 | > 10
12 | Cc1cnc(Nc2ccnn2C)nc1-c1cc2n(c1)C[C@H](C(F)F)n1c-2nnc1C(F)(F)c1ccccc1Cl [Compound 205] | ≤ 100 | > 10
13 | Cc1cnc(Nc2ccnn2C)nc1-c1cc2n(c1)CCn1c(COc3ccccc3F)nnc1-2 [Compound 7] | ≤ 100 | ≤ 5
14 | Cn1nccc1Nc1cc(-c2cc3n(c2)C[C@H](C(F)F)n2c-3nnc2C(F)(F)n2cc(Cl)cn2)c(Cl)cn1 [Compound 209] | ≤ 100 | 5 to 10
15 | Cc1cc(Nc2ncc(C)c(-c3cc4n(c3)CCCn3c-4nnc3C3(C(F)(F)F)CCC3)n2)ccn1 [Compound 281, 5-methyl-N-(2-methylpyridin-4-yl)-4-(3-(1-(trifluoromethyl)cyclobutyl)-6,7-dihydro-5H-pyrrolo[1,2-a][1,2,4]triazolo[3,4-c][1,4]diazepin-10-yl)pyrimidin-2-amine] | ≤ 100 | ≤ 5
16 | Cc1cnc(Nc2ccnn2C)cc1-c1cc2n(c1)CCn1c-2nnc1C(F)(F)c1ccccc1Cl [Compound 90] | ≤ 100 | 5 to 10

Row | Compound | IC50 [1] [nM] | IC50 (MAPK1(ERK2) enzyme) [nM]
17 | C[C@H](Oc1ccccc1F)c1nnc2c3cc(-c4ccnc(Nc5ccnn5C)n4)cn3ccn12 [Compound 39, (S)-4-(3-(1-(2-fluorophenoxy)ethyl)pyrrolo[1,2-a][1,2,4]triazolo[3,4-c]pyrazin-9-yl)-N-(1-methyl-1H-pyrazol-5-yl)pyrimidin-2-amine] | ≤ 100 | 5 to 10
18 | C[C@H]1Cn2cc(-c3nc(Nc4ccnn4C)ncc3F)cc2-c2nnc(C(F)(F)c3ccccc3Cl)n21 [Compound 143] | ≤ 100 | > 10
19 | Cn1nccc1Nc1cc(-c2cc3n(c2)C[C@H](CF)n2c-3nnc2C(F)(F)C(F)F)c(Cl)cn1 [Compound 79] | ≤ 100 | ≤ 5
20 | Cn1nccc1Nc1cc(-c2cc3n(c2)C[C@H](CF)n2c-3nnc2C(F)(F)c2ccccc2Cl)ccn1 [Compound 138] | ≤ 100 | 5 to 10
21 | Cc1cnc(Nc2ccnn2CCCO)nc1-c1cc2n(c1)C[C@H](C)n1c-2nnc1C(F)(F)c1ccccc1F [Compound 297] | ≤ 100 | > 10
22 | Cn1nccc1Nc1cc(-c2cc3n(c2)C[C@H](O)Cn2c-3nnc2C2(C(F)(F)F)CCC2)c(Cl)cn1 [Compound 215, (S)-10-(5-chloro-2-((1-methyl-1H-pyrazol-5-yl)amino)pyridin-4-yl)-3-(1-(trifluoromethyl)cyclobutyl)-6,7-dihydro-5H-pyrrolo[1,2-a][1,2,4]triazolo[3,4-c][1,4]diazepin-6-ol] | ≤ 100 | ≤ 5
23 | Cn1nccc1Nc1cc(-c2cc3n(c2)C[C@H](CF)n2c-3nnc2C(F)(F)c2ncccc2F)c(Cl)cn1 [Compound 194] | ≤ 100 | ≤ 5
24 | Cc1cnc(Nc2ccnn2C)cc1-c1cc2n(c1)CC(F)(F)Cn1c-2nnc1C1(C(F)F)CC(F)(F)C1 [Compound 169] | ≤ 100 | ≤ 5
25 | Cn1nccc1Nc1cc(-c2cc3n(c2)[C@H]2CC[C@H](C2)n2c-3nnc2C2(C(F)(F)F)CCC2)c(Cl)cn1 [Compound 267] | > 100 | > 10
26 | Cc1cnc(Nc2ccnn2C)cc1-c1cc2n(c1)C[C@H](CF)n1c-2nnc1C(F)(F)c1ccccc1Cl [Compound 172] | ≤ 100 | 5 to 10
27 | Cn1nccc1Nc1cc(-c2cc3n(c2)CCCn2c(COc4ccccc4F)nnc2-3)c(Cl)cn1 [Compound 38] | ≤ 100 | > 10
28 | C[C@H]1CCn2cc(-c3cc(Nc4ccnn4C)ncc3Cl)cc2-c2nnc(C3(C(C)(F)F)CCC3)n21 [Compound 105] | ≤ 100 | 5 to 10
29 | Cn1nccc1Nc1ncc(Cl)c(-c2cc3c4nnc(CC(F)(F)F)n4ccn3c2)n1 [Compound 212] | ≤ 100 | ≤ 5
30 | Cn1nccc1Nc1cc(-c2cc3n(c2)C[C@H](CF)n2c-3nnc2C2(F)CC2)c(Cl)cn1 [Compound 56] | ≤ 100 | ≤ 5
31 | Cn1nccc1Nc1cc(-c2cc3n(c2)CCCn2c-3nnc2N2CCc3ccccc32)c(Cl)cn1 [Compound 53, 5-Chloro-4-(3-(indolin-1-yl)-6,7-dihydro-5H-pyrrolo[1,2-a][1,2,4]triazolo[3,4-c][1,4]diazepin-10-yl)-N-(1-methyl-1H-pyrazol-5-yl)pyridin-2-amine] | > 100 | 5 to 10
32 | Cc1cnc(Nc2ccnn2C)cc1-c1cc2n(c1)C[C@H](CF)n1c-2nnc1C(F)(F)c1ncccc1Cl [Compound 174] | ≤ 100 | ≤ 5

Results, then the compound that gave them:

Row | IC50 [1] [nM] | IC50 (MAPK1(ERK2) enzyme) [nM] | Compound
33 | ≤ 100 | ≤ 5 | Cc1cnc(N[C@@H](C)CO)nc1-c1cc2n(c1)CCCn1c-2nnc1C1(C(F)(F)F)CCC1 [Compound 275, (S)-2-((5-methyl-4-(3-(1-(trifluoromethyl)cyclobutyl)-6,7-dihydro-5H-pyrrolo[1,2-a][1,2,4]triazolo[3,4-c][1,4]diazepin-10-yl)pyrimidin-2-yl)amino)propan-1-ol]
34 | ≤ 100 | > 10 | Cc1cnc(Nc2ccnn2C)cc1-c1cc2n(c1)C[C@H](CF)n1c-2nnc1C(F)(F)c1c(F)cccc1F [Compound 185]
35 | ≤ 100 | ≤ 5 | Cn1nccc1Nc1cc(-c2cc3n(c2)CCCn2c-3nnc2[C@](C)(O)C(F)(F)F)c(Cl)cn1 [Compound 26]
36 | ≤ 100 | ≤ 5 | Cc1cnc(Nc2ccnn2C)cc1-c1cc2n(c1)CC1(COC1)Cn1c-2nnc1C1(C(F)(F)F)CCC1 [Compound 306]
37 | ≤ 100 | 5 to 10 | Cc1cnccc1Nc1ncc(C)c(-c2cc3n(c2)CCCn2c-3nnc2C2(C(F)(F)F)CCC2)n1 [Compound 286]
38 | ≤ 100 | 5 to 10 | Cc1cnc(Nc2ccnn2C)nc1-c1cc2n(c1)C[C@H](C)n1c-2nnc1C(F)(F)c1cc(F)ccc1F [Compound 134]
39 | > 100 | 5 to 10 | Cn1nccc1Nc1cc(-c2cc3n(c2)CCCn2c-3nnc2C2(C(F)(F)F)CCC2)c(C#N)cn1 [Compound 248]
40 | ≤ 100 | 5 to 10 | Cn1nccc1Nc1nccc(-c2cn3c(c2Cl)-c2nnc(COc4ccccc4F)n2CCC3)n1 [Compound 257]
41 | ≤ 100 | ≤ 5 | Cn1nccc1Nc1cc(-c2cc3n(c2)C[C@H](F)Cn2c-3nnc2C2(C(F)(F)F)CCC2)c(Cl)cn1 [Compound 123]
42 | ≤ 100 | > 10 | CCCn1nccc1Nc1ncc(C)c(-c2cc3n(c2)C[C@H](C)n2c-3nnc2C(F)(F)c2ccccc2F)n1 [Compound 291]
43 | ≤ 100 | > 10 | Cn1nccc1Nc1cc(-c2cc3n(c2)C[C@H](CF)n2c-3nnc2C(F)(F)c2ccccc2Cl)c(Cl)cn1 [Compound 206]
44 | > 100 | 5 to 10 | Cc1cnc(Nc2ccnn2C)cc1-c1cc2n(c1)C[C@H](CF)n1c-2nnc1C(F)(F)c1cc(F)cc(F)c1 [Compound 182]
45 | ≤ 100 | ≤ 5 | Cn1nccc1Nc1cc(-c2cc3n(c2)C[C@H](CF)n2c-3nnc2C(F)(F)C(F)F)c(F)cn1 [Compound 63]
46 | > 100 | ≤ 5 | Cc1cnc(Nc2ccnn2C)nc1-c1cc2n(c1)C[C@H](C)n1c-2nnc1C1(C(F)(F)F)CCC1 [Compound 238]
47 | ≤ 100 | > 10 | Cn1nccc1Nc1cc(-c2cc3n(c2)C(C(F)(F)F)Cn2c-3nnc2C(F)(F)C(F)F)c(Cl)cn1 (stereo not drawn) [Compound 270]
48 | ≤ 100 | ≤ 5 | Cc1cnc(Nc2ccnn2C)cc1-c1cc2n(c1)C[C@H](CF)n1c-2nnc1C(F)(F)n1ccc(F)n1 [Compound 104]
